From patent US9181255B2, “Fused heteroaromatic pyrrolidinones as SYK inhibitors” (Takeda Pharmaceutical Company Limited, priority 2009, dated 2015)

What follows are compounds tested against SYK (Homo sapiens, UniProt P43405) (assay: SYK inhibition assay: SYK-mediated phosphorylation of FAM-labeled substrate (Caliper microfluidic)). Conditions: read-out: SYK Inhibition (pIC50) (converted).
Type: biochemical

| Structure (SMILES) | IC50 |
| --- | --- |
| Cc1cccc(Nc2nc(N[C@@H]3CCCC[C@@H]3N)c(I)c3c2C(=O)NC3)c1 [Example 81, 6-((1R,2S)-2-Aminocyclohexylamino)-7-iodo-4-(m-tolylamino)-1H-pyrrolo[3,4-c]pyridin-3(2H)-one] | 3.16 nM |
| CC(C)C[C@@H](Nc1nc(-c2coc3ccccc23)c2c(c1F)CNC2=O)C(N)=O [Example 73, (R)-2-(4-(Benzofuran-3-yl)-7-fluoro-3-oxo-2,3-dihydro-1H-pyrrolo[3,4-c]pyridin-6-ylamino)-4-methylpentanamide] | 7.94 nM |
| CN[C@H]1CCCC[C@H]1Nc1nc2c(c(Nc3cccc(C)c3)n1)C(=O)NC2 [Example 38, 2-((1R,2S)-2-(Methylamino)cyclohexylamino)-4-(m-tolylamino)-6,7-dihydro-5H-pyrrolo[3,4-d]pyrimidin-5-one] | 631 nM |
| Cc1cccc(Nc2nc(N[C@@H]3CCCC[C@@H]3N)c(-c3ccccc3)c3c2C(=O)NC3)c1 [Example 87] | 63.1 nM |
| Cc1cccc(Nc2nc(N[C@@H]3CCOC[C@@H]3N)c(F)c3c2C(=O)NC3)c1 [Example 89, 6-((3R,4R)-3-Aminotetrahydro-2H-pyran-4-ylamino)-7-fluoro-4-(m-tolylamino)-1H-pyrrolo[3,4-c]pyridin-3(2H)-one] | 3.98 nM |
| Cc1csc(-c2nc(N[C@@H]3CCOC[C@@H]3N)c(F)c3c2C(=O)NC3)c1 [Example 104, 6-((3R,4R)-3-Aminotetrahydro-2H-pyran-4-ylamino)-7-fluoro-4-(4-methylthiophen-2-yl)-1H-pyrrolo[3,4-c]pyridin-3(2H)-one] | 2 nM |
| N[C@H]1COCC[C@H]1Nc1nc(-c2cncs2)c2c(c1F)CNC2=O [Example 128, 6-((3R,4R)-3-Aminotetrahydro-2H-pyran-4-ylamino)-7-fluoro-4-(thiazol-5-yl)-1H-pyrrolo[3,4-c]pyridin-3(2H)-one] | 20 nM |
| N[C@H]1CCCC[C@H]1Nc1nc2c(c(-c3cnn(Cc4ccccc4)c3)n1)C(=O)NC2 [Example 19, 2-((1R,2S)-2-Aminocyclohexylamino)-4-(1-benzyl-1H-pyrazol-4-yl)-6,7-dihydro-5H-pyrrolo[3,4-d]pyrimidin-5-one] | 251 nM |
| Cc1cccc(Nc2nc(N(C)CCN)nc3c2C(=O)NC3)c1 [Example 43, 2-((2-Aminoethyl)(methyl)amino)-4-(m-tolylamino)-6,7-dihydro-5H-pyrrolo[3,4-d]pyrimidin-5-one] | 5010 nM |
| CC(C)C[C@@H](Nc1nc(-c2ccns2)c2c(c1F)CNC2=O)C(N)=O [Example 119, (R)-2-(7-Fluoro-4-(isothiazol-5-yl)-3-oxo-2,3-dihydro-1H-pyrrolo[3,4-c]pyridin-6-ylamino)-4-methylpentanamide] | 15.8 nM |
| N[C@H]1COCC[C@H]1Nc1nc(-n2cnc(C(F)(F)F)c2)c2c(c1F)CNC2=O [Example 130, 6-((3R,4R)-3-Aminotetrahydro-2H-pyran-4-ylamino)-7-fluoro-4-(4-(trifluoromethyl)-1H-imidazol-1-yl)-1H-pyrrolo[3,4-c]pyridin-3(2H)-one] | 10000 nM |
| Cn1cc(-c2nc(N[C@@H]3CC(F)(F)C[C@@H]3N)c(F)c3c2C(=O)NC3)cn1 (relative stereo) [Example 66, 6-(cis-2-Amino-4,4-difluorocyclopentylamino)-7-fluoro-4-(1-methyl-1H-pyrazol-4-yl)-1H-pyrrolo[3,4-c]pyridin-3(2H)-one] | 501 nM |
| N[C@H]1CCCC[C@H]1Nc1nc2c(c(-c3cnc4ccccn34)n1)C(=O)NC2 [Example 20, 2-((1R,2S)-2-Aminocyclohexylamino)-4-(imidazo[1,2-a]pyridin-3-yl)-6,7-dihydro-5H-pyrrolo[3,4-d]pyrimidin-5-one] | 200 nM |
| Cc1cccc(Nc2nc(NC3CCCCC3)nc3c2C(=O)NC3)c1 [Example 10, 2-(Cyclohexylamino)-4-(m-tolylamino)-6,7-dihydro-5H-pyrrolo[3,4-d]pyrimidin-5-one] | > 20000 nM |
